According to patent publication US10208068B2, “Macrocycles as factor XIa inhibitors” (BRISTOL-MYERS SQUIBB COMPANY, priority 2011, dated 2019):
“And” between values parts separate entries of the source, which are not always exact repeats. Equal values may be shown once. Read-outs that look alike come from different tables or passages of the source.

Tests used:
[1] = 12-membered ring
[2] = from C=CC[C@H](NC(=O)OC(C)(C)C)c1cc(-c2ccc(NC(=O)OC)cc2NC(=O)C(C=C)CC)ccn1, rcm bond, Grubbs II, microwave, DCE, 120.0 °C, 0.42 h

Work on `C[C@@H]1/C=C/C[C@H](NC(=O)OC(C)(C)C)c2cn(COCC[Si](C)(C)C)c(n2)-c2ccc([N+](=O)[O-])cc2NC1=O` yielded a ring closure, isolated yield ([1]; from C=CC[C@H](NC(=O)OC(C)(C)C)c1cn(COCC[Si](C)(C)C)c(-c2ccc([N+](=O)[O-])cc2NC(=O)[C@H](C)C=C)n1, rcm bond, Grubbs II (0.287 mmol), DCM, 16.0 h) of 56%.
Work on `COC(=O)Nc1ccc2c(c1)NC(=O)CCOC[C@H](NC(=O)OC(C)(C)C)c1nc-2cn1COCC[Si](C)(C)C` yielded a ring closure, yield after HPLC (from COC(=O)Nc1ccc(-c2cn(COCC[Si](C)(C)C)c([C@H](COCCC(=O)O)NC(=O)OC(C)(C)C)n2)c(N)c1, amide bond, 12-membered ring, BOP/DMAP/DIEA, DMF, 1.0 mM, 25.0 °C, 16.0 h) of 75%.
`COC(=O)Nc1ccc2c(c1)NC(=O)COCC[C@H](NC(=O)OCc1ccccc1)c1cc-2ccn1` gave a ring closure, yield after HPLC (from COC(=O)Nc1ccc(-c2ccnc([C@H](CCOCC(=O)O)NC(=O)OCc3ccccc3)c2)c(N)c1, amide bond, 12-membered ring, BOP/DMAP/DIEA, DCM/DMF, 2.8 mM, 25.0 °C, 6.0 h) of 27%.
`CCOC(=O)C1C/C=C/C[C@H](NC(=O)OC(C)(C)C)c2cc(ccn2)-c2ccc(NC(=O)OC)cc2N1` (some centres unmarked) showed a ring closure, isolated yield ([1]; from C=CCC(Nc1cc(NC(=O)OC)ccc1-c1ccnc([C@H](CC=C)NC(=O)OC(C)(C)C)c1)C(=O)OCC, rcm bond, Grubbs (as described before)) of 47%.
With `COC(=O)Nc1ccc2c(c1)NC(=O)C(C)C=CC[C@H](NC(=O)OC(C)(C)C)c1cc-2cc(=O)[nH]1` (some centres unmarked) the ring closure, yield after HPLC (from C=CC[C@H](NC(=O)OC(C)(C)C)c1cc(-c2ccc(NC(=O)OC)cc2NC(=O)C(C)C=C)cc(=O)[nH]1, rcm bond, 12-membered ring, Grubbs II (0.4 eq), microwave, DCE, 18.0 mM, 120.0 °C, 0.5 h) was 19% and 35%.
Work on `COC(=O)Nc1ccc2c(c1)NC(=O)[C@H](C)CCC[C@H](NC(=O)OC(C)(C)C)c1nc-2cn1COCC[Si](C)(C)C` yielded a ring closure, yield after HPLC (from COC(=O)Nc1ccc(-c2cn(COCC[Si](C)(C)C)c([C@H](CCCC(C)C(=O)O)NC(=O)OC(C)(C)C)n2)c(N)c1, amide bond, 12-membered ring, BOP/DMAP/DIEA, DCM/DMF, 3.4 mM, 50.0 °C, 96.0 h) of 22%.
For `COC(=O)Nc1ccc2c(c1)NC(=O)C/C=C/C[C@H](NC(=O)OC(C)(C)C)c1cc-2ccn1`, the ring closure, isolated yield ([1]; from C=CCC(=O)Nc1cc(NC(=O)OC)ccc1-c1ccnc([C@H](CC=C)NC(=O)OC(C)(C)C)c1, rcm bond, Grubbs II (0.4 eq)/pTsOH, DCM, 4.0 mM, 40.0 °C, 3.0 h) was 26%.
In the case of `COC(=O)Nc1ccc2c(c1)NC(=O)[C@H](C)C=CC[C@H](NC(=O)OC(C)(C)C)c1nc-2cn1COCC[Si](C)(C)C`, the ring closure, isolated yield ([1]; from C=CC[C@H](NC(=O)OC(C)(C)C)c1nc(-c2ccc(NC(=O)OC)cc2NC(=O)[C@H](C)C=C)cn1COCC[Si](C)(C)C, rcm bond, Grubbs II (0.4 eq)/pTsOH, DCM, 10.0 mM, 40.0 °C, 21.5 h) is reported as 41%.
`COC(=O)Nc1ccc2c(c1)NC(=O)CC/C=C/C[C@H](NC(=O)OC(C)(C)C)c1cc-2cc(=O)[nH]1` showed a ring closure, yield after HPLC (from C=CCCC(=O)Nc1cc(NC(=O)OC)ccc1-c1cc([C@H](CC=C)NC(=O)OC(C)(C)C)[nH]c(=O)c1, rcm bond, 13-membered ring, Grubbs II, microwave, DCE, 18.9 mM, 120.0 °C, 0.5 h) of 26%.
With `COC(=O)Nc1ccc(-c2ccnc([C@H](CCCO)NC(=O)OC(C)(C)C)c2)c(N)c1` the ring closure, isolated yield ([1]; the molecule shown is the open-chain precursor, other bond, phosgene, then TEA/DMAP, DCM, 3.3 mM, 2 steps) was 57%.
In the case of `COC(=O)Nc1ccc2c(c1)NC(=O)C/C=C/C(C)[C@H](NC(=O)OC(C)(C)C)c1cc-2ccn1` (some centres unmarked), the ring closure, yield after HPLC (from C=CCC(=O)Nc1cc(NC(=O)OC)ccc1-c1ccnc([C@@H](NC(=O)OC(C)(C)C)C(C)C=C)c1, rcm bond, 12-membered ring, Grubbs II, toluene, 9.0 mM, 160.0 °C, 0.33 h) is reported as 12%.
`COC(=O)Nc1ccc2c(c1)NC(=O)[C@H](C)/C=C/C[C@H](NC(=O)OC(C)(C)C)c1cc-2ccn1` gave a ring closure, isolated yield ([1]; from C=CC[C@H](NC(=O)OC(C)(C)C)c1cc(-c2ccc(NC(=O)OC)cc2NC(=O)C(C)C=C)ccn1, rcm bond, Grubbs II (0.1 eq)/pTsOH, DCM, 4.0 mM, 40.0 °C, 6.0 h) of 25% and a ring closure, isolated yield ([1]; from C=CC[C@H](NC(=O)OC(C)(C)C)c1cc(-c2ccc(NC(=O)OC)cc2NC(=O)[C@H](C)C=C)ccn1, rcm bond, Grubbs II (0.2 eq)/pTsOH, DCM, 11.8 mM, 4.0 h) of 71%.
`CCC1/C=C/C[C@H](NC(=O)OC(C)(C)C)c2cc(ccn2)-c2ccc(NC(=O)OC)cc2NC1=O` (single isomer, unassigned; diastereomer b) gave a ring closure, isolated yield [1, 2] of 16%.
`COC(=O)Nc1ccc2c(c1)NC(=O)CC/C=C/C[C@H](NC(=O)OC(C)(C)C)c1nc-2cn1COCC[Si](C)(C)C` showed a ring closure, yield after HPLC (from C=CCCC(=O)Nc1cc(NC(=O)OC)ccc1-c1cn(COCC[Si](C)(C)C)c([C@H](CC=CN)C(=O)OC(C)(C)C)n1, rcm bond, 13-membered ring) of 42%.
Work on `CCC1/C=C/C[C@H](NC(=O)OC(C)(C)C)c2cc(ccn2)-c2ccc(NC(=O)OC)cc2NC1=O` (single isomer, unassigned; diastereomer a) yielded a ring closure, isolated yield [1, 2] of 10%.
With `COC(=O)Nc1ccc2c(c1)NC(=O)C(C)/C=C/C[C@H](NC(=O)OC(C)(C)C)c1cc-2nnc1Cl` (some centres unmarked) the ring closure, isolated yield ([1]; from C=CC[C@H](NC(=O)OC(C)(C)C)c1cc(-c2ccc(NC(=O)OC)cc2NC(=O)C(C)C=C)nnc1Cl, rcm bond, Grubbs II (0.4 eq), 1,2-dichloroethane, 4.7 mM, 120.0 °C, 0.5 h) was 22%.
